Source: ChEMBL document CHEMBL1124750, “Diels-Alder adducts of vinyl porphyrins: synthesis and in vivo photodynamic effect against a rat bladder tumor” (1990)

How the values were obtained:
Rattus norvegicus [1] = organism: Rattus norvegicus; test: Dose required in phototherapy for twelve days and 73% control in tumor size in male Fischer CDF (F-344)/CrlBr rats; format: functional
Rattus norvegicus [2] = organism: Rattus norvegicus; test: Dose required in phototherapy for twelve days and free of palpable tumor in 100% of male Fischer CDF (F-344)/CrlBr rats
Rattus norvegicus [3] = organism: Rattus norvegicus; test: Dose required in phototherapy for twelve days in tumor size detected in male Fischer CDF (F-344)/CrlBr rats; format: functional
Rattus norvegicus [4] = organism: Rattus norvegicus; test: Compound evaluated for cytotoxicity in male Fischer CDF (F-344)/CrlBr rats; format: functional
Rattus norvegicus [5] = organism: Rattus norvegicus; test: Dose required in phototherapy for twelve days and palpable tumor detected in 50% of male Fischer CDF (F-344)/CrlBr rats; format: functional

Compound C=Cc1c(C)c2cc3nc(cc4nc(cc5[nH]c(cc1[nH]2)C1(C)C5=CCC(C#N)(C#N)C1(C#N)C#N)C(C)=C4CCC(=O)OC)C(CCC(=O)OC)=C3C (stereo unspecified) has a Dose (Rattus norvegicus [1]) of 1 mg/kg.
In the case of CCC1=C(C)c2cc3[nH]c(cc4nc(cc5[nH]c(cc1n2)C1(C)C5=CCC(C(=O)OC)=C1C(=O)OC)C(C)=C4CC)c(C)c3CC (stereo unspecified), the Dose (Rattus norvegicus [2]) is reported as 1 mg/kg.
Work on C=Cc1c(C)c2cc3nc(cc4nc(cc5[nH]c(cc1[nH]2)C1(C)C5=CCC(C(=O)OC)=C1C(=O)OC)C(C)=C4CCC(=O)OC)C(CCC(=O)OC)=C3C (stereo unspecified) yielded a Dose (Rattus norvegicus [3]) of 5 mg/kg.
For CCC1=C(CC)c2cc3[nH]c(cc4nc(cc5[nH]c(cc1n2)C1=CCC(C#N)(C#N)C(C#N)(C#N)C15CC)C(CC)=C4CC)c(CC)c3CC (stereo unspecified), the Dose (Rattus norvegicus [4]) was 1 mg/kg.
Work on CCC1=C(C)c2cc3[nH]c(cc4[nH]c(cc5nc(cc1n2)C(C)=C5CC)C1(C)C4=CCC(C#N)(C#N)C1(C#N)C#N)c(C)c3CC (stereo unspecified) yielded a Dose (Rattus norvegicus [4]) of 1 mg/kg.
Compound CCC1=C(CC)c2cc3[nH]c(cc4nc(cc5[nH]c(cc1n2)C1=CCC(C(=O)OC)=C(C(=O)OC)C15CC)C(CC)=C4CC)c(CC)c3CC (stereo unspecified) has a Dose (Rattus norvegicus [5]) of 1 mg/kg.
